Measured values: patent US20070093552A1, “Early insulin secretion stimulator” (priority 2003, published 2007)

Legend:
Type in all cases: in vivo, human
[1] = tested on: borderline diabetic patients; test: Glucose tolerance test after administration of corosolic acid or placebo, blood insulin level (IRI) assayed (Test Example 1); settings: 10 mg oral, 75 g glucose load, p<0.05, 31 patients
Method: A glucose tolerance test was performed after administration of corosolic acid or a placebo, in a double-blind crossover manner, and the blood insulin level (IRI: immunoreactive insulin) was assayed.
(§1) First, 31 borderline diabetic patients as test subjects were orally administered corosolic acid (10 mg, ≧99% purity) or a placebo, and blood was sampled immediately thereafter with the blood insulin level at that time designated as the value at 0 minutes. Immediately after blood sampling, 75 g of glucose was orally administered to each test subject to start a glucose tolerance test, and blood was sampled after periods of 30 minutes, 60 minutes, 90 minutes, 120 minutes and 180 minutes for measurement of the blood insulin level.
FIG. 1 is a graph showing the blood insulin levels during the glucose tolerance test. The horizontal axis represents time (min) after start of the glucose tolerance test, and the vertical axis represents IRI (μU/mL). In the graph, (a) is a case with administration of corosolic acid and (b) is a case with administration of the placebo.

test subjects = test: Glucose tolerance test after administration of corosolic acid, banaba extract or placebo, blood glucose level assayed (Test Example 2); settings: 10 mg oral, 75 g glucose load, p<0.05, 35 subjects
Method: The following test was conducted to confirm that corosolic acid has a hypoglycemic effect. A glucose tolerance test was performed after administration of corosolic acid, banaba extract or a placebo, in a double-blind crossover manner, and the blood glucose level (plasma glucose concentration) was assayed.
as §1, with “35” for “31 borderline diabetic patients as”, “purity), banaba extract (trade name: COROSOLIA M, product of Use Techno Corporation; administered at 10 mg of corosolic acid)” for “purity)”, “glucose” for “insulin”
FIG. 2 is a graph showing blood glucose levels during the glucose tolerance test. The horizontal axis represents time (min) after start of the glucose tolerance test, and the vertical axis represents plasma glucose concentration (mg/dL). In the graph, (c) is a case with administration of corosolic acid, (d) is a case with administration of banaba leaf extract and (e) is a case with administration of the placebo.

[2] = tested on: borderline diabetic patients; test: Changes in blood glucose and blood insulin levels after fasting, absence of glucose load (Test Example 3); settings: fasted, 10 mg; for I: blood insulin level: unit assumed
Method: Three borderline diabetic patients (person, person and person) were instructed to fast from 8:00 pm (to ensure absence of glucose load), and were administered a placebo once or the test agent (corosolic acid) once at 9:00 am on the following day, after which the changes in blood glucose levels and blood insulin levels were measured. The test subjects were given absolutely no information regarding placebo or test agent (crossover, double-blind). The corosolic acid was administered in a single 10 mg dose, and each test was conducted twice.
FIG. 3 is a graph showing changes in blood glucose levels with administration of corosolic acid and a placebo in the absence of a glucose load, and FIG. 4 is a graph showing changes in blood insulin levels with administration of corosolic acid and a placebo in the absence of a glucose load.

[3] = 120 minutes after start of glucose tolerance test

C[C@H]1[C@H](C)CC[C@]2(C(=O)O)CC[C@]3(C)C(=CC[C@@H]4[C@@]5(C)C[C@@H](O)[C@H](O)C(C)(C)[C@@H]5CC[C@]43C)[C@H]12 [corosolic acid]
blood insulin level compared to placebo ([1]; 30 minutes after start of glucose tolerance test): significant increase
blood insulin level compared to placebo [1, 3]: significant drop
blood glucose level compared to placebo (test subjects; 90 minutes after start of glucose tolerance test): significant decrease
blood glucose level compared to placebo (test subjects; [3]): significant decrease
G: blood glucose level ([2]; test subject A, after 0 min): 110 mg/dL
I: blood insulin level ([2]; test subject A, after 0 min): 9 µU/mL
I: blood insulin level ([2]; test subject A, after 30 min): 6.9 µU/mL
I: blood insulin level ([2]; test subject A, after 60 min): 6.6 µU/mL
I: blood insulin level ([2]; test subject A, after 90 min): 5.9 µU/mL
I: blood insulin level ([2]; test subject A, after 120 min): 6.6 µU/mL
I: blood insulin level ([2]; test subject A, after 180 min): 5.1 µU/mL
I: blood insulin level ([2]; test subject B, after 0 min): 2.5 µU/mL
I: blood insulin level ([2]; test subject B, after 30 min): 2.6 µU/mL
I: blood insulin level ([2]; test subject B, after 60 min): 3 µU/mL
I: blood insulin level ([2]; test subject B, after 90 min): 2 µU/mL
G: blood glucose level ([2]; test subject B, after 120 min): 150 mg/dL
I: blood insulin level ([2]; test subject B, after 120 min): 3.4 µU/mL
I: blood insulin level ([2]; test subject B, after 180 min): 2.4 µU/mL
G: blood glucose level ([2]; test subject C, after 0 min): 90 mg/dL
I: blood insulin level ([2]; test subject C, after 0 min): 4.5 µU/mL
G: blood glucose level ([2]; test subject C, after 30 min): 90 mg/dL
I: blood insulin level ([2]; test subject C, after 30 min): 4.1 µU/mL
G: blood glucose level ([2]; test subject C, after 60 min): 88 mg/dL
I: blood insulin level ([2]; test subject C, after 60 min): 3.9 µU/mL
G: blood glucose level ([2]; test subject C, after 90 min): 86 mg/dL
I: blood insulin level ([2]; test subject C, after 90 min): 4.9 µU/mL
G: blood glucose level ([2]; test subject C, after 120 min): 86 mg/dL
I: blood insulin level ([2]; test subject C, after 120 min): 4 µU/mL
G: blood glucose level ([2]; test subject C, after 180 min): 81 mg/dL
I: blood insulin level ([2]; test subject C, after 180 min): 4 µU/mL
